Assay results reported in US8207154B2, “Catatonic bacteriochlorophyll derivatives” (Yeda Research and Development Co., Ltd., priority 2005, dated 2012).

Assays:
C6 glioma xenografts = assay: Photodynamic treatment (PDT) of C6 glioma xenografts; assay type: in vivo, CD1 nude mice
Protocol: (vii) Tumor implantation. Cultured C6 glioma cell monolayers were scraped in saline, centrifuged at 250 g for 5 min, resuspended in saline and subcutaneously injected (2×10^6 cells/mouse) into the back of CD1 nude mice. Tumors reached a treatment diameter of 6-8 mm within 2 weeks. The mice were sacrificed (according to the guidelines of the Weizmann Institute of Science) when tumors reached the diameter of ≧15 mm.
(xi) PDT Protocol. CD1 nude mice bearing C6 glioma (n=17) were anesthetized and compound 5 (0.3 mg/kg) was injected via the tail vein. The tumor area was immediately illuminated (drug-to-light time interval (DLTI)=0) transcutaneously for 15 min by 755 nm diode laser (CeramOptec, Germany) with light dose of 80 mW/cm^2 (light field diameter—14 mm). Following illumination the mice (n=12) were placed back in the cage. Tumor response (using local necrosis at day 8 post-PDT as end point) was recorded photographically, and tumor volume was assessed (Gleave et al., 1992.) Response was considered as partial when only a part of the illuminated tumor became necrotic. Mice were considered cured if they were tumor free 90 days after treatment. Continued tumor growth following PDT was scored as no response. Mice were sacrificed when tumor diameter reached 15 mm. The following controls were used: (i) dark control (n=3)-tumor-bearing mice i.v. injected with sensitizer but not illuminated; (ii) light control (n=2)-tumor-bearing mice not injected with sensitizer but illuminated; (iii) untreated control (n=2)-tumor-bearing mice not injected with sensitizer and not illuminated.
Based on the pharmacokinetic data described in Example 20 above, the treatment protocol for compound 5 was set to 15-min illumination immediately after injection of the sensitizer, using a dedicated medical laser matched to the peak absorption of 5 (CeramOptec, Germany, 755 nm). In order to test the drug efficiency, CD1 male nude mice (n=12) were treated with a dose of 0.3 mg/kg compound 5 and light intensity of 80 mW/cm^2. […] FIGS. 6B-6C are photographs of the tumor site of a mice injected with compound 5 but not illuminated and of a mice injected with saline and illuminated, respectively.
FIG. 7 depicts a Kaplan-Meier survival curve showing 80% survival for mice treated with compound 5 and illuminated (treatment, squares).

[1] = Biodistribution in rat organs and tissues (fluorescence); assay type: in vivo, Wistar rats; conditions: 0.6 mg/kg i.v.
Protocol: (x) Biodistribution. Wistar rats (n=2) were anesthetized and compound 5 of the invention (0.6 mg/kg) was injected into their tail vein. The control group (n=2) was not treated with the sensitizer. At 30 min and 24 h after injection, rats (one for each time-point), were sacrificed and samples of the indicated organs or tissues (heart, liver, lung, spleen, kidney, brain, testes, skin, muscle and fat) were collected into and weighed in pre-weighted vials, immediately frozen on dry ice and stored at […] in the dark until analyzed. For examination, each sample was thawed, weighed again, and homogenized (Polytron, Kinematica GmbH or Ultra-Turrax) in ice-cold water. The vials were then frozen in liquid nitrogen and lyophilized. The lyophilized samples were extracted with methanol (5-10 ml) in an amount equivalent to the tissue weight, and then vortexed and centrifuged. The supernatant was collected and analyzed and fluorescence measured as described in (ix) above. The fluorescence of methanol and of tissue extracts from control animals were used as blanks.

[2] = Octanol/water partition ratio; assay type: physicochemical
Source text: Optical absorption in water, λ (relative absorption): 753 (1.00), 519 (0.30), 354 (1.25) nm. Octanol/water partition ratio is 40/60. ESI-MS (+): 413.62 ([M-2×citrate]/2). Octanol/water partition ratio is 50/50. ESI-MS (+): 455.89 ([M-2×citrate]/2). Octanol/water partition ratio is 75/25.

[3] = molecular target: human serum albumin (HSA) (Homo sapiens, UniProt P02768); assay: Interaction with human serum albumin (aggregation state, spectrophotometric); assay type: binding; conditions: in PBS, 3.2×10^−4 M, 0.1-5 mg HSA
Chain of human serum albumin (HSA) (P02768 25-609): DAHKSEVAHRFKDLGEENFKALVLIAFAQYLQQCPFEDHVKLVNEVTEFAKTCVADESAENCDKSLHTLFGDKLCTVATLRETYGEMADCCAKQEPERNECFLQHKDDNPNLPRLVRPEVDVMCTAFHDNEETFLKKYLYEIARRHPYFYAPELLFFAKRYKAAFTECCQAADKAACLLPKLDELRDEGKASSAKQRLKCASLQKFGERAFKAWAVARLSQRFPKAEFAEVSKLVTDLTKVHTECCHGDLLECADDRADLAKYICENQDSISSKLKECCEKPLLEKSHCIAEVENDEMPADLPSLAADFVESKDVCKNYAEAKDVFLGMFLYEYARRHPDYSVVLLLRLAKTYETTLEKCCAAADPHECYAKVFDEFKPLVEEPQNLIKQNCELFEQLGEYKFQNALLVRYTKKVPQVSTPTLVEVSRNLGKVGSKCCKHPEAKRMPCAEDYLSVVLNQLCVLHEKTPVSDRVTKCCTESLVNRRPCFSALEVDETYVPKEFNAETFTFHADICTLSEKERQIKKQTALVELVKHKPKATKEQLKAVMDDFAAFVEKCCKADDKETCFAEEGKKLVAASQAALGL
Protocol: A solution of 5 in PBS (3.2×10^−4 M, 100 μl) was mixed with various amounts of human serum albumin (0.1, 0.5, 1, 2, and 5 mg). Aggregation, at high concentrations of 5 in aqueous solutions, is reflected by splitting of the original monomeric peak at 747 nm into two new peaks at 720 and 760 nm. The state of aggregation was followed spectrophotometrically over the range of albumin concentrations at room temperature in a 0.1 mm cuvette. The absorbance intensity values at the peak wavelengths were taken as an indication of the aggregation.
Addition of the albumin caused disaggregation of the sensitizer 5 in PBS (FIG. 2). The absorption spectra of the solutions containing increasing amounts of albumin resembled the spectrum of the monomeric pigment 5 in methanol.

E. coli = assay: Phototoxicity on Gram-negative bacteria, colony counting; assay type: cell-based, E. coli XL-1
Protocol: (ii) Bacterial cultures. Bacteria of strains St. albus and E. coli XL-1 were cultured in liquid LB medium (E. coli in LB containing 12.5 μg tetracyclin/ml) to a final density of OD600 nm=0.5-0.9 (1 OD=8×10^8 bacteria/ml). The bacteria were spun down (4000×g, 5 min.) and resuspended in PBS.
(b) Bacterial. To determine the photodynamic efficacy, bacteria were diluted to aliquots of 300 μl containing about 10^7 bacteria, and incubated with increasing concentrations of sensitizer in plastic test tubes in the dark for 1 h at room temperature, and then illuminated at 70 mW/cm^2 for 15 min. Samples of the treated bacteria cultures were subsequently plated at different dilutions (50-200 bacteria/plate) on LB agar and cultured for 24 h at 37° C. for determination of bacterial survival by colony counting. Triplicate determinations were conducted and representative experiments are shown.
The phototoxicity of positively-charged compound 5 was tested on Gram-positive St. albus and Gram-negative E. coli bacteria in comparison to the negatively-charged Pd 3^1-oxo-15-methoxycarbonylmethyl-Rhodobacteriochlorin 13^1-(2-sulfoethyl)amide dipotassium salt (described in PCT/IL03/00973). Bacteria were incubated with increasing concentrations of the sensitizers for 1 h and illuminated or kept in the dark. […] Gram-positive bacteria St. albus, was 100 times more sensitive to compound 5 than Gram-negative E. coli. No phototoxicity was observed when bacteria were incubated and treated with the same sensitizers' concentration range without illumination (dark controls).

## 3^1-Oxo-15-methoxycarbonylmethyl-Rhodo-bacteriochlorin 13^1,17^3-di(2-N^3-trimethylammoniumethyl)amide dicitrate salt [Compound 5]
C6 glioma xenografts; 0.3 mg/kg i.v., illuminated 15 min, 755 nm, 80 mW/cm^2
  survival (Kaplan-Meier survival curve): 80%
C6 glioma xenografts; C6 glioma xenografts in mice
  lower concentration causing tumor eradication than Pd-Bpheid or the negatively-charged 13^1-(2-sulfoethyl)amide dipotassium salt: 10 fold
C6 glioma xenografts; PDT-treated mouse, by day 32
  outcome at tumor site: the wound healed and the animal was cured
C6 glioma xenografts; PDT-treated mouse, day 14, 0.3 mg/kg, 80 mW/cm^2
  tumor necrosis: tumor necrosis was observed
C6 glioma xenografts; all animals of full treatment group, day 1 after treatment
  local reaction after treatment: developed inflammation and edema
C6 glioma xenografts; injected with compound but not illuminated
  tumor necrosis, dark control: No necrosis of the tumor
[1]; 30 min after injection
  levels of the sensitizer in organs: relatively high in the blood, kidneys and lungs
[1]; 24 h after injection
  level of the sensitizer in the blood: almost background level
  levels of the sensitizer in organs: significant levels were still found in the kidneys, liver and spleen
[2]; dicitrate salt
  Octanol/water partition ratio: 40/60
[2]; listed as 2, dicitrate salt
  Octanol/water partition ratio: 75/25
[3]
  aggregation state on addition of albumin: disaggregation
E. coli; 10 μM, illuminated
  death of E. coli: ~100%
E. coli; 1 h incubation, illuminated 15 min at 70 mW/cm^2, read-out: Kd (phototoxicity)
  phototoxic concentration: 1700 nM
